Test results: patent EP4592296A1, “NOVEL TETRAHETEROCYCLE COMPOUND” (Idience Co., Ltd., priority 2022, dated 2024)

How the values were obtained:
[1] = system: AsPC-1 pancreatic cancer (KRAS G12D mutation) cells; experiment: Cell proliferation assay (CellTiter-Glo cell viability); format: cell-based; details: AsPC-1 cells, CellTiter-Glo 2.0
Method: (§1) Cell viability test of test compounds in AsPC-1 pancreatic cancer (KRAS G12D mutation) or SW480 colon cancer (KRAS G12V mutation) cells for 72 hours
(§2) The reference compound Staurosporine was purchased from Sigma-Aldrich (Saint Louis, […]), and CellTiter-Glo® 2.0 Luminescent cell viability assay reagent (cat# G9243) was purchased from Promega (Madison, WI). AsPC-1 and SW480 cell lines were purchased from the American Type Culture Collection (Manassas, VA). AsPC-1 cells were cultured in RPMI-1640 (ATCC, cat#30-2001), and SW480 cells were cultured in DMEM (ATCC cat#30-2002), supplemented with 10% FBS (Sigma-Aldrich, cat#F2442) and 100 µg/mL penicillin-streptomycin (Sigma-Aldrich, cat#P4333). Cells were cultured at 37 °C in a humidified atmosphere of 5 % CO2 and 95 % air.
(§3) • 1. The test compound and reference compound Staurosporine were dissolved in DMSO solution to prepare 20 mM (test compound) and 10 mM (reference compound Staurosporine) in the Source Plate, and diluted 3-fold and 10 doses with DMSO. • 2. Ten volumes of 125 nL test compound or 25 nL reference compound from the Source Plate were dispensed into wells of a 384-well culture plate (VWR, cat#82050-076) using an Echo 655. • 3. 25 µL of culture medium including 2000 AsPC-1 or SW480 cells was dispensed into each 384-well cell culture plate. • 4. Cells were cultured with compounds at 37 °C, 5 % CO2for 72 hours. • 5. 25 µL of CellTiter-Glo 2.0 reagent was added to each well of the plate. • 6. The contents were mixed in an orbital shaker for 2 minutes and the luminescence signal was stabilized at room temperature for 15 minutes. • 7. Luminescence signals were measured with an Envision 2104 Multilabel Reader (PerkinElmer, Santa Clara, CA), and the number of viable cells was determined by quantifying the ATP present in each culture medium. • 8. IC50 values were calculated based on the sigmoidal dose-response equation in the GraphPad Prism 4 program.

KRAS^WT = target: T1, KRAS^WT (Homo sapiens, UniProt P01116); experiment: KRAS nucleotide exchange assay (SOS1-mediated, HTRF); format: biochemical; details: KRAS 20 nM, SOS1 7.5 nM, labeled GTP 0.15 µM
T1 construct: GST-tagged KRAS WT or mutant proteins (amino acids 2-169)
Excerpt: (§4) Evaluation of the inhibitory effect of compounds on SOS1-mediated nucleotide exchange activity of KRAS^WT, KRAS^G12D, and KRAS^G12V mutants
(§5) A method to monitor SOS1-mediated exchange of unlabeled KRAS-bound GDP and fluorescently labeled GTP, based on energy transfer between the donor Tb cryptate-labeled GST antibody and the acceptor DY-647P1 GTP when they are in close proximity.
(§6) • GST-tagged KRAS WT or mutant proteins (amino acids 2-169), • SOS1(amino acids 564-1049), • Labeled GTP (GTP-DY-647P1), • Assay Buffer (20 mM HEPES pH 7.4, 150 mM NaCl, 5 mM MgCl2, 1 mM DTT, 0.05% BSA, 0.0025% NP40)
(§7) • 1. KRAS protein was diluted with assay buffer to 1.5 times the final concentration, mixed with Tb cryptate anti-GST antibody, and 10 µL was added to each assay well (final concentration was 20 nM for KRAS^WT, KRAS^G12D, and KRAS^G12V). • 2. The compound was dissolved in DMSO and then diluted to prepare 100 times the final concentration. • 3. Compounds were dispensed into assay wells using an ECHO acoustic dispenser (Beckman), gently mixed with the KRAS/Ab mixture, and incubated for 60 minutes. • 4. SOS1 and labeled GTP were mixed and diluted to 3 times the final concentration with assay buffer, and 5 µL of the solution was added to the assay well to initiate the reaction (final concentration of labeled GTP was 0.15 µM, final concentration of SOS1 was 7.5 nM in WT, 12.5 nM in G12D, and 50 nM in G12V). Blank wells contained only assay buffer and labeled GTP. • 5. The reaction was monitored at Ex/Em=(337/665; 337/620) using a Pherastar Plate Reader (BMG). • 6. The HTRF signal was analyzed approximately 25 minutes after the start of the reaction (G12V reacted for 60 minutes). • 7. Nucleotide exchange activity was expressed as a percentage difference compared to the DMSO reaction value, and the IC50 value was calculated based on the four-parameter logistic equation in GraphPad 4.0 software. HTRF signal = ems 665/ems 620∗10000 [formula]

KRAS^G12D = target: T2, KRAS^G12D (Homo sapiens, UniProt P01116, G12D); experiment: as above; format: biochemical; details: KRAS 20 nM, SOS1 12.5 nM, labeled GTP 0.15 µM, 60 min preincubation
T2 construct: GST-tagged KRAS WT or mutant proteins (amino acids 2-169)
Excerpt: as §4, §5, §6, §7

KRAS^G12V = target: T3, KRAS^G12V (Homo sapiens, UniProt P01116, G12V); experiment: as above; format: biochemical; details: KRAS 20 nM, SOS1 50 nM, labeled GTP 0.15 µM, reacted 60 minutes
T3 construct: GST-tagged KRAS WT or mutant proteins (amino acids 2-169)
Excerpt: as §4, §5, §6, §7

[2] = system: SW480 colon cancer (KRAS G12V mutation) cells; experiment: Cell proliferation assay (CellTiter-Glo cell viability); format: cell-based; details: Homo sapiens, 72 hours, CellTiter-Glo 2.0
Method: as §1, §2, §3

KRAS G12C = target: T4, KRAS G12C (Homo sapiens, UniProt P01116, G12C); experiment: KRAS nucleotide exchange assay (SOS1-mediated, HTRF); format: biochemical; details: conditions for G12C not described
T4 construct: GST-tagged KRAS WT or mutant proteins (amino acids 2-169)

KRAS G13D = target: T5, KRAS G13D (Homo sapiens, UniProt P01116, G13D); experiment: as above; format: biochemical; details: conditions for G13D not described
T5 construct: GST-tagged KRAS WT or mutant proteins (amino acids 2-169)
T5 sequence (P01116 2-169 isoform P01116-2 G13D): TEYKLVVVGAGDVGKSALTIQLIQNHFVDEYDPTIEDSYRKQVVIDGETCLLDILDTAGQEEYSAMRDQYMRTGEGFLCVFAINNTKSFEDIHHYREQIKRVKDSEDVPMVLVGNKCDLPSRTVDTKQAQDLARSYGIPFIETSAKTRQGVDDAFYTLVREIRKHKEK

T2 sequence (P01116 2-169 isoform P01116-2 G12D): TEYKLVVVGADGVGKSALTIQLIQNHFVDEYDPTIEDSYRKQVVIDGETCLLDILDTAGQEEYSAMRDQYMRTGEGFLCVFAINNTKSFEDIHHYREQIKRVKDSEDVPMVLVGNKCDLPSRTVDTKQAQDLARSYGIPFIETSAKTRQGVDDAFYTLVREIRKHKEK
T3 sequence (P01116 2-169 isoform P01116-2 G12V): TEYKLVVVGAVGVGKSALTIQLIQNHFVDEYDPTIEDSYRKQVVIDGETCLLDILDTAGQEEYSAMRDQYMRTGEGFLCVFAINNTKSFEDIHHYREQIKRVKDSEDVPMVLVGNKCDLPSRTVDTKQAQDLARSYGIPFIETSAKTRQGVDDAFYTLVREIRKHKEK
T4 sequence (P01116 2-169 isoform P01116-2 G12C): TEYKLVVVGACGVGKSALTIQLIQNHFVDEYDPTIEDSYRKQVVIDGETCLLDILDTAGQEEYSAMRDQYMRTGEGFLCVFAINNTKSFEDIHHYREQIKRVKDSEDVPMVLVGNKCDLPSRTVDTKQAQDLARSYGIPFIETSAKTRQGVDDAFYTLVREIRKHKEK
T1 sequence (P01116 2-169 isoform P01116-2): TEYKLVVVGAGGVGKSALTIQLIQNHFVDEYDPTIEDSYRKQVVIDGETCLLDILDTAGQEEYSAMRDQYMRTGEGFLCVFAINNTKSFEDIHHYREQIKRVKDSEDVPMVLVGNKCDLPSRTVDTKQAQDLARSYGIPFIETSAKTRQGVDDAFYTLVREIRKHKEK

| SMILES | IC50 ([1]; Homo sapiens, ASPC1, 72 h) [nM] | IC50 (KRAS^G12D) [nM] | further results |
| --- | --- | --- | --- |
| N#Cc1c(N)sc2c(F)ccc(-c3c(Cl)c4c5c(nc(OC[C@@]67CCCN6C[C@H](F)C7)nc5c3F)N3CCCOC[C@H]3CO4)c12 (single isomer, unassigned) [Example 12a] |  |  | IC50 ([1]; 72 hours): 2000 to 20000 nM |
| N#Cc1c(N)sc2c(F)ccc(-c3c(Cl)c4c5c(nc(OC[C@@]67CCCN6C[C@H](F)C7)nc5c3F)N3CCCOC[C@H]3CO4)c12 (single isomer, unassigned) [Example 12b] | < 2000 |  |  |
| CCc1c(F)ccc2cc(O)cc(-c3nc4c5c(nc(OC[C@@]67CCCN6C[C@H](F)C7)nc5c3F)N3CCNC[C@@H]3CCO4)c12 [Example 1, 5-ethyl-6-fluoro-4-((S)-1-fluoro-12-(((2R,7aS)-2-fluorotetrahydro-1H-pyrrolizin-7a(5H)-yl)methoxy)-6,6a,7,8,9,10-hexahydro-5H-4-oxa-3,8,10a,11,13-pentaazabenzo[4,5]cycloocta[1,2,3-de]naphthalen-2-yl)naphthalen-2-ol] | > 20000 | 5.95 | IC50 (KRAS^WT): 6.5 nM |
| C#Cc1c(F)ccc2cc(O)cc(-c3nc4c5c(nc(OC[C@@]67CCCN6C[C@H](F)C7)nc5c3F)N3CCNC[C@@H]3CCO4)c12 [Example 2, 5-ethynyl-6-fluoro-4-((S)-1-fluoro-12-(((2R,7aS)-2-fluorotetrahydro-1H-pyrrolizin-7a(5H)-yl)methoxy)-6,6a,7,8,9,10-hexahydro-5H-4-oxa-3,8,10a,11,13-pentaazabenzo[4,5]cycloocta[1,2,3-de]naphthalen-2-yl)naphthalen-2-ol] | > 20000 | 2.75 | IC50 (KRAS^G12V): 2.89 nM; IC50 [2]: > 20000 nM |
| Nc1nc2c(-c3c(Cl)c4c5c(nc(OC[C@@]67CCCN6C[C@H](F)C7)nc5c3F)N3CCNC[C@@H]3CCO4)ccc(F)c2s1 [Example 3, 4-((14aS)-11-chloro-9-fluoro-7-(((2R,7aS)-2-fluorotetrahydro-1H-pyrrolizin-7a(5H)-yl)methoxy)-1,3,4,13,14,14a-hexahydro-2H-pyrazino[1',2':5,6][1,5]oxazocino[4,3,2-de]quinazolin-10-yl)-7-fluorobenzo[d]thiazol-2-amine] | 2000 to 20000 | 7.84 |  |
| Oc1cc(Cl)c(C2CC2)c(-c2nc3c4c(nc(OCC56CCCN5CC(F)C6)nc4c2F)N2CCNCC2CCO3)c1 [Example 4, 3-chloro-4-cyclopropyl-5-((S)-1-fluoro-12-(((2R,7aS)-2-fluorotetrahydro-1H-pyrrolizin-7a(5H)-yl)methoxy)-6,6a,7,8,9,10-hexahydro-5H-4-oxa-3,8,10a,11,13-pentaazabenzo[4,5]cycloocta[1,2,3-de]naphthalen-2-yl)phenol] |  | 52.5 |  |
| CCc1c(F)ccc2cc(O)cc(-c3nc4c5c(nc(OC[C@@]67CCCN6C[C@H](F)C7)nc5c3F)N3CCNC[C@@H]3CC(C)O4)c12 (stereo partly drawn) [Example 5, 5-ethyl-6-fluoro-4-((6aS)-1-fluoro-12-(((2R,7aS)-2-fluorotetrahydro-1H-pyrrolizin-7a(5H)-yl)methoxy)-5-methyl-6,6a,7,8,9,10-hexahydro-5H-4-oxa-3,8,10a,11,13-pentaazabenzo[4,5]cycloocta[1,2,3-de]naphthalen-2-yl)naphthalen-2-ol] |  | 12.5 |  |
| Nc1nc2c(-c3c(Cl)c4c5c(nc(OC[C@@]67CCCN6C[C@H](F)C7)nc5c3F)N3CCCCCC3CO4)ccc(F)c2s1 (stereo partly drawn) [Example 6, 4-(3-chloro-1-fluoro-13-(((2R,7aS)-2-fluorotetrahydro-1H-pyrrolizin-7a(5H)-yl)methoxy)-5a,6,7,8,9,10-hexahydro-5H-azepino[2',1':3,4][1,4]oxazepino[5,6,7-de]quinazolin-2-yl)-7-fluorobenzo[d]thiazol-2-amine] | < 2000 | 5.9 | IC50 (KRAS G12C): 2.36 nM; IC50 (KRAS^G12V): 5.9 nM; IC50 (KRAS G13D): 11.1 nM |
| Nc1nc2c(-c3c(Cl)c4c5c(nc(OC[C@@]67CCCN6C[C@H](F)C7)nc5c3F)N3CCCOC[C@H]3CO4)ccc(F)c2s1 [Example 7, 4-((14aS)-12-chloro-10-fluoro-8-(((2R,7aS)-2-fluorotetrahydro-1H-pyrrolizin-7a(5H)-yl)methoxy)-4,5,14,14a-tetrahydro-1H,3H-[1,4]oxazepino[3',4':3,4][1,4]oxazepino[5,6,7-de]quinazolin-11-yl)-7-fluorobenzo[d]thiazol-2-amine] | < 2000 |  |  |
| N#Cc1c(N)sc2c(F)ccc(-c3c(Cl)c4c5c(nc(OC[C@@]67CCCN6C[C@H](F)C7)nc5c3F)N3CCCCC[C@@H]3CO4)c12 [Example 11a, 2-amino-4-(3-chloro-1-fluoro-13-(((2R,7aS)-2-fluorotetrahydro-1H-pyrrolizin-7a(5H)-yl)methoxy)-5a,6,7,8,9,10-hexahydro-5H-azepino[2',1':3,4][1,4]oxazepino[5,6,7-de]quinazolin-2-yl)-7-fluorobenzo[b]thiophene-3-carbonitrile] | 2000 to 20000 |  |  |
| N#Cc1c(N)sc2c(F)ccc(-c3c(Cl)c4c5c(nc(OC[C@@]67CCCN6C[C@H](F)C7)nc5c3F)N3CCCCC[C@H]3CO4)c12 [Example 11b, 2-amino-4-(3-chloro-1-fluoro-13-(((2R,7aS)-2-fluorotetrahydro-1H-pyrrolizin-7a(5H)-yl)methoxy)-5a,6,7,8,9,10-hexahydro-5H-azepino[2',1':3,4][1,4]oxazepino[5,6,7-de]quinazolin-2-yl)-7-fluorobenzo[b]thiophene-3-carbonitrile] | < 2000 |  |  |
